Test results as given in publication PMC7038240 (Antimicrobial Agents and Chemotherapy, 2020).
Read-outs that look alike come from different tables or passages of the source.

Key:
Format in all cases: cell-based
[1] = test system: K. pneumoniae; assay: microbe, parasite or virus in culture; settings: Klebsiella pneumoniae, read-out: MIC
[2] = test system: S. marcescens; assay: microbe, parasite or virus in culture; settings: Serratia marcescens
[3] = test system: E. coli; assay: microbe, parasite or virus in culture; settings: Escherichia coli, read-out: MIC
[4] = test system: C. freundii; assay: microbe, parasite or virus in culture; settings: Citrobacter freundii
[5] = test system: K. oxytoca; assay: microbe, parasite or virus in culture; settings: Klebsiella oxytoca, read-out: MIC
[6] = test system: M. morgannii; assay: organism not typed; settings: strain 769909; OXA-48
Description: The antibacterial activity of cefepime-taniborbactam was compared to that of ceftazidime-avibactam, ceftolozane-tazobactam, and cefepime-tazobactam against a diverse panel of Enterobacterales and P. aeruginosa clinical isolates with defined β-lactamase subtypes (see Table S1 in the supplemental material). IMP-producing strains were excluded, as none of the BLI-protected cephalosporins inhibited IMP sufficiently to provide a clinically relevant rescue of the partner β-lactam, a characteristic also shared by approved BLI-protected carbapenems (meropenem-vaborbactam and imipenem-relebactam). […] The antibacterial activity of the cephalosporins alone was included to ascertain the level of potentiation by the partnered BLI. BLIs were tested at a fixed concentration of 4 μg/ml in all combinations except cefepime-tazobactam, where tazobactam was fixed at a concentration of 8 μg/ml ([38]). The collection comprised 143 clinical isolates collected from 2005 and 2018.
The in vitro antibacterial activity of the β-lactams alone or in combination with the BLIs was determined in cation-adjusted Mueller-Hinton broth (CAMHB) microdilution assays according to CLSI recommendations ([51]). […]. The inocula for the broth microdilution assays were prepared by the broth culture method ([51]). […]

CO/N=C(\C(=O)N[C@@H]1C(=O)N2C(C(=O)[O-])=C(C[N+]3(C)CCCC3)CS[C@H]12)c1csc(N)n1 [FEP]
MIC ([1]; strain 848828, KPC): ≥ 256 µg/mL
MIC ([1]; strain 849170, KPC): ≥ 256 µg/mL
MIC ([1]; strain 856819, SHV-11/VIM-1): 32 µg/mL
MIC ([1]; strain 864085, KPC): 32 µg/mL
MIC ([1]; strain 871489, KPC): ≥ 256 µg/mL
MIC ([1]; strain 873460, SHV-30/CTX-M-15): 32 µg/mL
MIC ([1]; strain 874328, SHV-11/CTX-M-15/NDM-1): 128 µg/mL
MIC ([1]; strain 882752, SHV-11/TEM-1/KPC-3): 128 µg/mL
MIC ([1]; strain 882956, SHV-31/DHA-1/VIM-1): 16 µg/mL
MIC ([1]; strain 884679, KPC): 32 µg/mL
MIC ([1]; strain 890066, SHV-33/TEM-33/CTX-M-15/IMP-1): 64 µg/mL
MIC ([1]; strain 892694, SHV-12/TEM-1/CTX-M-15/OXA-48/ACT): 32 µg/mL
MIC ([1]; strain 919877, SHV-OSBL/VIM-1): 128 µg/mL
MIC ([1]; strain 1104864, SHV-OSBL(b)/VIM-1): ≥ 256 µg/mL
MIC ([1]; strain 1104866, SHV-OSBL(b)/VIM-1): ≥ 256 µg/mL
MIC ([1]; strain 1280442, SHV-OSBL(b)/VIM-1): 16 µg/mL
MIC ([1]; strain CDC-0003, KPC): 32 µg/mL
MIC ([1]; strain CDC-0049, NDM): ≥ 256 µg/mL
MIC ([1]; strain CDC-0117, KPC-3): 64 µg/mL
MIC ([1]; strain CDC-0125, KPC-3): 64 µg/mL
MIC ([1]; strain CDC-0139, NDM-1): ≥ 256 µg/mL
MIC ([1]; strain CDC-0145, NDM): ≥ 256 µg/mL
MIC ([1]; strain CDC-0148, NDM): 128 µg/mL
MIC ([1]; strain CDC-0152, NDM): ≥ 256 µg/mL
MIC ([1]; strain DOV, OXA-48): 32 µg/mL
MIC ([1]; strain ESBL8 #1, TEM-1/SHV-12): 4 µg/mL
MIC ([1]; strain ESBL 10, SHV-12/TEM-1): 8 µg/mL
MIC ([1]; strain KIRK, OXA-162): 16 µg/mL
MIC ([1]; strain KP 3, SHV-1/TEM-1): 16 µg/mL
MIC ([1]; strain KPN 508, SHV-7/TEM-1): 8 µg/mL
MIC ([1]; strain SI-C05, OXA-48): 16 µg/mL
MIC ([1]; strain SI-F100, SHV-5/TEM-1/CMY-2): 1 µg/mL
MIC ([1]; strain SI-KP NO30, TEM-26b/SHV-60/SHV-26): 16 µg/mL
MIC ([2]; strain 134434, AmpC/SHV-12/TEM-1): 4 µg/mL
MIC ([2]; strain 192476, AmpC/TEM-1/SHV-5): 4 µg/mL
MIC ([2]; strain 192478, AmpC/SHV-12/TEM-1): 4 µg/mL
MIC ([2]; strain 218073, AmpC/SHV-7/TEM-1): 2 µg/mL
MIC ([3]; ATCC25922, E. coli ATCC 25922, enzyme content None): 0.06 µg/mL
MIC ([3]; E. coli CDC-0452, NDM): 64 µg/mL
MIC ([3]; NCTC13353, E. coli NCTC 13353, CTX-M-15): 64 µg/mL
MIC ([3]; strain 469, AmpC/SHV-12/TEM-1): 1 µg/mL
MIC ([3]; strain 1924, TEM-12): 16 µg/mL
MIC ([3]; strain 664507, OXA-48): 16 µg/mL
MIC ([3]; strain 664516, OXA-48): 64 µg/mL
MIC ([3]; strain 664520, OXA-48): 32 µg/mL
MIC ([3]; strain 664522, OXA-48): 64 µg/mL
MIC ([3]; strain 664523, OXA-48): 128 µg/mL
MIC ([3]; strain 849121, KPC): 64 µg/mL
MIC ([3]; strain 873435, CTX-M-15): 128 µg/mL
MIC ([3]; strain 875627, CTX-M-27): 8 µg/mL
MIC ([3]; strain 878358, TEM-1/CTX-M): ≥ 256 µg/mL
MIC ([3]; strain 890500, TEM-1/CTX-M-14): 64 µg/mL
MIC ([3]; strain 1275635, VIM-23): 64 µg/mL
MIC ([3]; strain 1459453, NDM-7): ≥ 256 µg/mL
MIC ([3]; strain CDC-0001, KPC): 128 µg/mL
MIC ([3]; strain CDC-0069, NDM): 32 µg/mL
MIC ([3]; strain CDC-0149, NDM): ≥ 256 µg/mL
MIC ([3]; strain EC1552 2A, AmpC/CMY-2/TEM-1, CTX-M-15): 4 µg/mL
MIC ([3]; strain ESBL 5, CTX-M-15/TEM-1): ≥ 256 µg/mL
MIC ([3]; strain SI-LP377, CTX-M-2): 64 µg/mL
MIC ([3]; strain SI-M004, SHV-2/GES-12): 16 µg/mL
MIC ([3]; strain SI-PO26, AmpC/CMY-2/TEM-1): 0.25 µg/mL
MIC ([3]; strain SI-V502, TEM-29/CTX-M-15): 8 µg/mL
MIC ([3]; strain VER, OXA-48): 0.5 µg/mL
MIC ([4]; strain 134390, AmpC/TEM-1): 0.5 µg/mL
MIC ([4]; strain 241181, AmpC/TEM-163): 8 µg/mL
MIC ([5]; strain 134943, CMY-2/TEM-1): 4 µg/mL
MIC ([5]; strain 847537, KPC): 32 µg/mL
MIC [6]: 0.06 µg/mL
